Reference: patent publication US12661410B2, “Compounds for targeted degradation of RET” (C4 Therapeutics, Inc., priority 2020, dated 2026)
Where a chain is given by its changes, count along the chain named. Read-outs that look alike come from different tables or passages of the source.

What was measured:
[1] = molecular target: T1, RET(KD: 658-1114 G810R) (Homo sapiens, UniProt P07949, G810R); experiment: HiBiT-Degradation, RET G810R degradation assay (Nano-Glo HiBiT Lytic), 293T.165 cells; assay type: cell-based; settings: for Emax / DC50: 6.0 hours; for DC50: read-out: 293T.165 RET(KD: 658-1114 G810R) 6.0 hours (DC50)
T1 construct: 658-1114; expressed in transfected cells; host or cells: 293T.165 (293T cells, generated in-house)
T1 sequence (P07949 658-1114 G810R): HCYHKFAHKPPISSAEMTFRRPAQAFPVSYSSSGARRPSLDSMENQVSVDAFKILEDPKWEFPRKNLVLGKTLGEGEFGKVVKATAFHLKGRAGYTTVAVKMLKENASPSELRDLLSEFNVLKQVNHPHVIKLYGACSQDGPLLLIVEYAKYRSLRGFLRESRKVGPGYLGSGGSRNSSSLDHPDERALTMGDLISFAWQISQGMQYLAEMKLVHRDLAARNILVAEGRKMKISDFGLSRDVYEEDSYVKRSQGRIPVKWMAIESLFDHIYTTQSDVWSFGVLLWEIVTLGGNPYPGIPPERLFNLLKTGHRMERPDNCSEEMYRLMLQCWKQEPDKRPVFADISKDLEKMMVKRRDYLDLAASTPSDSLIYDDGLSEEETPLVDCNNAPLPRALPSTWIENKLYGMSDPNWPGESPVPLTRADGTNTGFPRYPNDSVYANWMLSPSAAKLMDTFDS
How it was run: (§1)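 Engineered 293T cells carry a HiBiT tag on the RET kinase domain, either wild type (line 293T.144) or G810R (line 293T.165). Compounds act for 6 h across a 10 μM-top, half-log 11-point range. Lytic HiBiT luminescence gives remaining protein, fitted for DC50 and Emax.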

[2] = molecular target: T2, RET (658-1114) (Homo sapiens, UniProt P07949); experiment: HiBiT-Degradation, RET wild-type degradation assay (Nano-Glo HiBiT Lytic), 293T.144 cells; assay type: cell-based; settings: for DC50 / Emax: 6.0 hours
T2 construct: 658-1114; expressed in transfected cells; host or cells: 293T.144 (293T cells, generated in-house)
T2 sequence (P07949 658-1114): T1 sequence (P07949 658-1114 G810R) with R153G
How it was run: as §1

[3] = % remaining protein, read-out: 293T.165 RET(KD: 658-1114 G810R) 6.0 hours (Emax)
[4] = half-maximal degradation concentration
[5] = % remaining protein, read-out: 293T.144 RET (658-1114) 6.0 hours (Emax)
[6] = half-maximal degradation concentration, read-out: 293T.144 RET (658-1114) 6.0 hours (DC50)
[7] = HiBiT-Degradation, read-out: 293T.144 RET (658-1114) 6.0 hours (DC50)
[8] = HiBiT-Degradation, read-out: 293T.144 RET (658-1114) 6.0 hours (Emax)

With `CCC1(C(=O)NC(C)C)CCN(c2ccc(-c3cc(-c4cnn([C@H]5CC[C@H](N6CCC(c7ccc(NC8CCC(=O)NC8=O)cc7F)CC6)CC5)c4)cn4ncc(C#N)c34)cn2)CC1` (single isomer, unassigned) [Compound 87, 1-(5-(3-cyano-6-(1-((1r, 4r)-4-(4-(4-((2,6-dioxopiperidin-3-yl)amino)-2-fluorophenyl)piperidin-1-yl)cyclohexyl)-1H-pyrazol-4-yl)pyrazolo[1,5-a]pyridin-4-yl)pyridin-2-yl)-4-ethyl-N-isopropylpiperidine-4-carboxamide] the Emax [1, 3] was less than 30%, the “HiBiT-Degradation 293T.165 RET(KD: 658-1114 G810R) 6.0 hours (IP) [nM]” value ([1]; RET G810R) was “++++ (< 50 nM = ++++)” and the Emax ([1]; RET G810R, read-out: HiBiT-Degradation 293T.165 RET(KD: 658-1114 G810R) 6.0 hours (Emax)) was less than 30%. For the same compound, the “HiBiT-Degradation 293T.144 RET (658-1114) 6.0 hours (IP) [nM]” value ([2]; RET wild-type) was “++++ (< 50 nM = ++++)”, the DC50 ([2]; RET wild-type, read-out: HiBiT-Degradation 293T.144 RET (658-1114) 6.0 hours (DC50)) was less than 50 nM and the Emax ([2]; RET wild-type, read-out: HiBiT-Degradation 293T.144 RET (658-1114) 6.0 hours (Emax)) was less than 30%.
With `CCC1(c2ncccn2)CCN(c2ccc(-c3nc(-c4cnn(C5CCN(C(=O)CC6(O)CCN(c7ccc(NC8CCC(=O)NC8=O)cc7F)CC6)CC5)c4)cn4ncc(C#N)c34)cn2)CC1` (stereo not drawn) [Compound 105, 6-[1-[1-[2-[1-[4-[(2,6-dioxo-3-piperidyl)amino]-2-fluoro-phenyl]-4-hydroxy-4-piperidyl]acetyl]-4-piperidyl]pyrazol-4-yl]-4-[6-(4-ethyl-4-pyrimidin-2-yl-1-piperidyl)-3-pyridyl]pyrazolo[1,5-a]pyrazine-3-carbonitrile] the “293T.165 RET(KD: 658-1114 G810R) 6.0 hours (IP) [nM]” value [1] was “++++ (<50 nM = ++++)”, the Emax [1, 3] was less than 50% and the DC50 [1, 4] was less than 50 nM. The “293T.144 RET (658-1114) 6.0 hours (IP) [nM]” value [2] was “++++ (<50 nM = ++++)”, the Emax [2, 5] was less than 30% and the DC50 [2, 6] was less than 50 nM.
With `N#Cc1cnn2cc(-c3cnn([C@H]4CC[C@H](N5CCN(c6cc(F)c(NC7CCC(=O)NC7=O)cc6F)CC5)CC4)c3)nc(-c3ccc(N4CC5COCC(C4)N5Cc4ccccn4)nc3)c12` (relative stereo) [Compound 161, 6-[1-[4-[4-[4-[(2,6-dioxo-3-piperidyl)amino]-2,5-difluoro-phenyl]piperazin-1-yl]cyclohexyl]pyrazol-4-yl]-4-[6-[9-(2-pyridylmethyl)-3-oxa-7,9-diazabicyclo[3.3.1]nonan-7-yl]-3-pyridyl]pyrazolo[1,5-a]pyrazine-3-carbonitrile] the “293T.165 RET(KD: 658-1114 G810R) 6.0 hours (IP) [nM]” value [1] was “++++ (<50 nM = ++++)”, the Emax [1, 3] was less than 30% and the DC50 [1, 4] was less than 50 nM. For the same compound, the “293T.144 RET (658-1114) 6.0 hours (IP) [nM]” value [2] was “++++ (<50 nM = ++++)”, the Emax [2, 5] was less than 30% and the DC50 [2, 6] was less than 50 nM.
For `N#Cc1cnn2cc(-c3ccc(N4CCN(C(=O)CN5CCC(c6ccc(NC7CCC(=O)NC7=O)cc6F)CC5)CC4)cc3)cc(-c3ccc(N4CCN(C(=O)Cc5ccc(F)cn5)CC4)nc3)c12` (stereo not drawn) [Compound 16, 6-[4-[4-[2-[4-[4-[(2,6-dioxo-3-piperidyl)amino]-2-fluoro-phenyl]-1-piperidyl]acetyl]piperazin-1-yl]phenyl]-4-[6-[4-[2-(5-fluoro-2-pyridyl)acetyl]piperazin-1-yl]-3-pyridyl]pyrazolo[1,5-a]pyridine-3-carbonitrile], the Emax [1, 3] was less than 30%, the DC50 [1, 4] was less than 100 nM and the “293T.165 RET(KD: 658-1114 G810R) 6.0 hours (Emax)” value ([1]; HiBiT-Degradation) was “++++ (< 30% = ++++)”. For the same compound, the “293T.165 RET(KD: 658-1114 G810R) 6.0 hours (IP) [nM]” value ([1]; HiBiT-Degradation) was “++++ (< 50 nM = ++++)”, the DC50 ([1]; HiBiT-Degradation) was less than 100 nM and the “293T.144 RET (658-1114) 6.0 hours (IP) [nM]” value ([2]; HiBiT-Degradation) was “++++ (< 50 nM = ++++)”. It also gave a DC50 [2, 7] of less than 50 nM and an Emax [2, 8] of less than 30%.
With `COC1(C(=O)NC(C)C)CCN(c2ccc(-c3cc(-c4cnn(C5CCN(C(=O)CN6CCC(c7ccc(NC8CCC(=O)NC8=O)cc7F)CC6)CC5)c4)cn4ncc(C#N)c34)cn2)CC1` (stereo not drawn) [Compound 6, 1-[5-[3-cyano-6-[1-[1-[2-[4-[4-[(2,6-dioxo-3-piperidyl)amino]-2-fluoro-phenyl]-1-piperidyl]acetyl]-4-piperidyl]pyrazol-4-yl]pyrazolo[1,5-a]pyridin-4-yl]-2-pyridyl]-N-isopropyl-4-methoxy-piperidine-4-carboxamide] the Emax [1, 3] was less than 50%, the DC50 [1, 4] was less than 50 nM and the “293T.165 RET(KD: 658-1114 G810R) 6.0 hours (Emax)” value ([1]; HiBiT-Degradation) was “+++ (<50% = +++)”. For the same compound, the “293T.165 RET(KD: 658-1114 G810R) 6.0 hours (IP) [nM]” value ([1]; HiBiT-Degradation) was “++++ (< 50 nM = ++++)”, the DC50 ([1]; HiBiT-Degradation) was less than 50 nM and the “293T.144 RET (658-1114) 6.0 hours (IP) [nM]” value ([2]; HiBiT-Degradation) was “++++ (< 50 nM = ++++)”. The DC50 [2, 7] was less than 50 nM and the Emax [2, 8] was less than 30%.
With `N#Cc1cnn2cc(-c3cnn(C4CCN(C(=O)CN5CCC(c6ccc(OC7CCC(=O)NC7=O)cc6F)CC5)CC4)c3)nc(-c3ccc(N4CCN(Cc5cc(F)ccn5)CC4)cc3)c12` (stereo not drawn) [Compound 38, 6-(1-(1-(2-(4-(4-((2,6-Dioxopiperidin-3-yl)oxy)-2-fluorophenyl)piperidin-1-yl)acetyl)piperidin-4-yl)-1H-pyrazol-4-yl)-4-(4-(4-((4-fluoropyridin-2-yl)methyl)piperazin-1-yl)phenyl)pyrazolo[1,5-a]pyrazine-3-carbonitrile] the Emax [1, 3] was less than 50%, the DC50 [1, 4] was less than 100 nM and the “293T.165 RET(KD: 658-1114 G810R) 6.0 hours (Emax)” value ([1]; HiBiT-Degradation) was “+++ (<50% = +++)”. For the same compound, the “293T.165 RET(KD: 658-1114 G810R) 6.0 hours (IP) [nM]” value ([1]; HiBiT-Degradation) was “++++ (< 50 nM = ++++)”, the DC50 ([1]; HiBiT-Degradation) was less than 100 nM and the “293T.144 RET (658-1114) 6.0 hours (IP) [nM]” value ([2]; HiBiT-Degradation) was “++++ (< 50 nM = ++++)”. It also gave a DC50 [2, 7] of less than 50 nM and an Emax [2, 8] of less than 30%.
With `CCC1(C(=O)NC2CCC2)CCN(c2ccc(-c3nc(-c4cnn([C@H]5CC[C@H](N6CCN(c7c(F)cc(N[C@@H]8CCC(=O)NC8=O)cc7F)CC6)CC5)c4)cn4ncc(C#N)c34)cn2)CC1` (single isomer, unassigned) [Compound 137] the “293T.165 RET(KD: 658-1114 G810R) 6.0 hours (IP) [nM]” value [1] was “++++ (<50 nM = ++++)”, the Emax [1, 3] was less than 30% and the DC50 [1, 4] was less than 50 nM. The “293T.144 RET (658-1114) 6.0 hours (IP) [nM]” value [2] was “++++ (<50 nM = ++++)”, the Emax [2, 5] was less than 30% and the DC50 [2, 6] was less than 50 nM.
